In patent US10981894B2, “Melanocortin subtype-2 receptor (MC2R) antagonists and uses thereof” (Crinetics Pharmaceuticals, Inc., priority 2018, dated 2021):

Molecular target: hMC2 receptor (Homo sapiens, UniProt Q01718)
Assay: hMC2 membrane binding assay ([125I]ACTH (1-39) Tyr23, SPA)
Set-up: scale not given here
Settings: crude hMC2R membranes from CRE-bla-CHO-K1 cells expressing hMC2 receptor and hMRAP; [125I]ACTH (1-39) Tyr23 0.2 nM; 1.5 hours at room temperature; read-out: MC2R binding potency
Method in brief: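 CRE-bla-CHO-K1 membranes co-expressing hMC2 receptor and hMRAP, preincubated with WGA PVT SPA beads in pH 7.4 HEPES/MgCl2/CaCl2/0.2% BSA buffer. Compounds (typically 0–10,000 nM final) compete with 0.2 nM [125I]ACTH(1-39) Tyr23 for 1.5 h at room temperature. SPA counts give Ki by non-linear regression.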

Chain of hMC2 receptor (Q01718 whole entry): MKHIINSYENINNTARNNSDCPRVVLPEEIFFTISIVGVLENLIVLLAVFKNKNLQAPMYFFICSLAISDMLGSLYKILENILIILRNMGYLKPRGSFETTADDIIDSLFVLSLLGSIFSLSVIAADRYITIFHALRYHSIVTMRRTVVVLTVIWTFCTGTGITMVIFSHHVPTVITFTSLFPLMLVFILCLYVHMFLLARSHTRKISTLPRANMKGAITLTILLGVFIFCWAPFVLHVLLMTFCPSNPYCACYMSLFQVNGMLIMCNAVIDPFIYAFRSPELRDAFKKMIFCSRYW
Chain of hMC2 receptor (Q8TCY5 whole entry partner): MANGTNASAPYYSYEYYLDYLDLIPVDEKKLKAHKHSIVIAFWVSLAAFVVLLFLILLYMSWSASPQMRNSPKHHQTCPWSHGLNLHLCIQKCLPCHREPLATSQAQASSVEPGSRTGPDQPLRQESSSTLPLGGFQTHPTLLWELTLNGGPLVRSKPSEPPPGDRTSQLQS

Ki, < 10 nM:
CCOc1ncccc1-c1ccc(N2CCN(C(=O)c3ccc(Cl)cc3C(F)(F)F)C[C@H]2CC)c(C(=O)NCCc2cnc[nH]2)c1 [Compound 1-84, 2-[(2R)-4-[4-chloro-2-(trifluoromethyl)benzoyl]-2-ethylpiperazin-1-yl]-5-(2-ethoxypyridin-3-yl)-N-[2-(1H-imidazol-5-yl)ethyl]benzamide]
CCOc1ncccc1-c1ccc(N2CCN(C(=O)c3ccc(C)cc3N3CCC(CN)C3)C[C@H]2CC)c(C(=O)NCCN)c1 (stereo partly drawn) [Compound 1-104, N-(2-aminoethyl)-2-[(2R)-4-{2-[3-(aminomethyl)pyrrolidin-1-yl]-4-methylbenzoyl}-2-ethylpiperazin-1-yl]-5-(2-ethoxypyridin-3-yl)benzamide]
CCOc1ncccc1-c1ccc(N2CCN(C(=O)c3ccc(F)cc3N3CCC(CN)C3)C[C@H]2CC)c(C(=O)NCCN)c1 (stereo partly drawn) [Compound 1-51, N-(2-aminoethyl)-2-[(2R)-4-{2-[3-(aminomethyl)pyrrolidin-1-yl]-4-fluorobenzoyl}-2-ethylpiperazin-1-yl]-5-(2-ethoxypyridin-3-yl)benzamide]
CCOc1ncccc1-c1ccc(N2CCN(C(=O)C3(C(F)(F)F)CCCC3)C[C@H]2CC)c(C(=O)N[C@@H]2CCNC2)n1 [Compound 1-263, 2′-ethoxy-5-[(2R)-2-ethyl-4-[1-(trifluoromethyl)cyclopentanecarbonyl]piperazin-1-yl]-N-[(3R)-pyrrolidin-3-yl]-[2,3′-bipyridine]-6-carboxamide]
CCOc1ncccc1-c1ccc(N2CCN(C(=O)c3ccc(Cl)cc3N3CC[C@H](CN)C3)C[C@H]2CC)c(C(=O)NCCN)c1 [Compound 1-40, N-(2-aminoethyl)-2-[(2R)-4-{2-[(3R)-3-(aminomethyl)pyrrolidin-1-yl]-4-chlorobenzoyl}-2-ethylpiperazin-1-yl]-5-(2-ethoxypyridin-3-yl)benzamide]
CCOc1ncccc1-c1ccc(N2CCN(C(=O)N3CCC[C@H]3C(F)(F)F)C[C@H]2CC)c(C(=O)N[C@@H]2CCNC2)n1 [Compound 1-306, 2′-ethoxy-5-[(2R)-2-ethyl-4-[(2S)-2-(trifluoromethyl)pyrrolidine-1-carbonyl]piperazin-1-yl]-N-[(3R)-pyrrolidin-3-yl]-[2,3′-bipyridine]-6-carboxamide]
CCOc1ncccc1-c1ccc(N2CCN(C(=O)c3ccc(Cl)cc3C(F)(F)F)C[C@H]2CC)c(C(=O)N[C@H]2CCN(C)C2)n1 [Compound 1-215, 5-[(2R)-4-[4-chloro-2-(trifluoromethyl)benzoyl]-2-ethylpiperazin-1-yl]-2′-ethoxy-N-[(3S)-1-methylpyrrolidin-3-yl]-[2,3′-bipyridine]-6-carboxamide]
CCOc1ncccc1-c1ccc(N2CCN(C(=O)[C@H]3CC[C@@H](C(F)(F)F)CC3)C[C@H]2CC)c(C(=O)N[C@@H]2CCNC2)n1 [Compound 1-299, 2′-ethoxy-5-[(2R)-2-ethyl-4-[cis-4-(trifluoromethyl)cyclohexanecarbonyl]piperazin-1-yl]-N-[(3R)-pyrrolidin-3-yl]-[2,3′-bipyridine]-6-carboxamide]
CCOc1ccc(C(=O)N2CCN(c3ccc(-c4cccnc4OCC)nc3C(=O)NC3CN(C)C3)[C@H](CC)C2)c(C(F)(F)F)n1 [Compound 1-233, 2′-ethoxy-5-[(2R)-4-[6-ethoxy-2-(trifluoromethyl)pyridine-3-carbonyl]-2-ethylpiperazin-1-yl]-N-(1-methylazetidin-3-yl)-[2,3′-bipyridine]-6-carboxamide]
CCOc1ncccc1-c1ccc(N2CCN(C(=O)c3ccc(Cl)cc3N3CC[C@H](N(C)C)C3)C[C@H]2CC)c(C(=O)N[C@@H]2CCNC2)c1 [Compound 1-115, 2-[(2R)-4-{4-chloro-2-[(3S)-3-(dimethylamino)pyrrolidin-1-yl]benzoyl}-2-ethylpiperazin-1-yl]-5-(2-ethoxypyridin-3-yl)-N-[(3R)-pyrrolidin-3-yl]benzamide]
CCOc1ncccc1-c1ccc(N2CCN(C(=O)c3ccc(OC)nc3C(F)(F)F)C[C@H]2CC)c(CN)n1 [Compound 2-31, 1-{2′-ethoxy-5-[(2R)-2-ethyl-4-[6-methoxy-2-(trifluoromethyl)pyridine-3-carbonyl]piperazin-1-yl]-[2,3′-bipyridin]-6-yl}methanamine]
CCOc1ncccc1-c1ccc(N2CCN(C(=O)c3ccc(F)cc3C(F)(F)F)C[C@H]2CC)c(C(=O)NCCNC)c1F [Compound 1-114, 3-(2-ethoxypyridin-3-yl)-6-[(2R)-2-ethyl-4-[4-fluoro-2-(trifluoromethyl)benzoyl]piperazin-1-yl]-2-fluoro-N-[2-(methylamino)ethyl]benzamide]
CCOc1ncccc1-c1ccc(N2CCN(C(=O)c3ccc(Cl)cc3Cl)C[C@H]2CC)c(C(=O)NCCN)c1 [Compound 1-42, N-(2-aminoethyl)-2-[(2R)-4-(2,4-dichlorobenzoyl)-2-ethylpiperazin-1-yl]-5-(2-ethoxypyridin-3-yl)benzamide]
CCOc1ncccc1-c1ccc(N2CCN(C(=O)c3ccc(C(F)(F)F)cc3N(C)C)C[C@H]2CC)c(C(=O)NCCN)c1 [Compound 1-107, N-(2-aminoethyl)-2-[(2R)-4-[2-(dimethylamino)-4-(trifluoromethyl)benzoyl]-2-ethylpiperazin-1-yl]-5-(2-ethoxypyridin-3-yl)benzamide]
CCOc1ccc(C(=O)N2CCN(c3ccc(-c4cccnc4OCC)nc3C(=O)NCCNC)[C@H](CC)C2)c(C(F)(F)F)c1 [Compound 1-137, 2′-ethoxy-5-[(2R)-4-[4-ethoxy-2-(trifluoromethyl)benzoyl]-2-ethylpiperazin-1-yl]-N-[2-(methylamino)ethyl]-[2,3′-bipyridine]-6-carboxamide]
CCOc1ncccc1-c1ccc(N2CCN(C(=O)C3(C(F)(F)F)CCCC3)C[C@H]2CC)c(C(=O)NCC2CN(C)C2)n1 [Compound 1-313, 2′-ethoxy-5-[(2R)-2-ethyl-4-[1-(trifluoromethyl)cyclopentanecarbonyl]piperazin-1-yl]-N-[(1-methylazetidin-3-yl)methyl]-[2,3′-bipyridine]-6-carboxamide]
CCOc1ncccc1-c1ccc(N2CCN(C(=O)c3ccc(F)cc3Cl)C[C@H]2CC)c(C(=O)NCCN)c1 [Compound 1-38, N-(2-aminoethyl)-2-[(2R)-4-(2-chloro-4-fluorobenzoyl)-2-ethylpiperazin-1-yl]-5-(2-ethoxypyridin-3-yl)benzamide]
CCOc1ncccc1-c1ccc(N2CCN(C(=O)c3ccc(C)cc3N3CC[C@H](NC)C3)C[C@H]2CC)c(C(=O)N[C@@H]2CCNC2)c1 [Compound 1-94, 5-(2-ethoxypyridin-3-yl)-2-[(2R)-2-ethyl-4-{4-methyl-2-[(3S)-3-(methylamino)pyrrolidin-1-yl]benzoyl}piperazin-1-yl]-N-[(3R)-pyrrolidin-3-yl]benzamide]
CCOc1ncccc1-c1ccc(N2CCN(C(=O)C3(C(F)(F)F)CCCC3)C[C@H]2CC)c(C(=O)NCCN2CCC2)n1 [Compound 1-337, N-[2-(azetidin-1-yl)ethyl]-2′-ethoxy-5-[(2R)-2-ethyl-4-[1-(trifluoromethyl)cyclopentanecarbonyl]piperazin-1-yl]-[2,3′-bipyridine]-6-carboxamide]
CCOc1ncccc1-c1ccc(N2CCN(C(=O)N3CCC[C@H]3C(F)(F)F)C[C@H]2CC)c(C(=O)N[C@@H]2CCN(C)C2)n1 [Compound 1-372, 2′-ethoxy-5-[(2R)-2-ethyl-4-[(2S)-2-(trifluoromethyl)pyrrolidine-1-carbonyl]piperazin-1-yl]-N-[(3R)-1-methylpyrrolidin-3-yl]-[2,3′-bipyridine]-6-carboxamide]
CCOc1ccccc1-c1ccc(N2CCN(C(=O)c3ccc(OC)nc3C(F)(F)F)C[C@H]2CC)c(C(=O)NC2CN(C)C2)n1 [Compound 1-236, 6-(2-ethoxyphenyl)-3-[(2R)-2-ethyl-4-[6-methoxy-2-(trifluoromethyl)pyridine-3-carbonyl]piperazin-1-yl]-N-(1-methylazetidin-3-yl)pyridine-2-carboxamide]
CCOc1ncccc1-c1ccc(N2CCN(C(=O)c3ccc(OC)nc3C(F)(F)F)C[C@H]2CC)c(C(=O)NCC2CN(C)C2)n1 [Compound 1-242, 2′-ethoxy-5-[(2R)-2-ethyl-4-[6-methoxy-2-(trifluoromethyl)pyridine-3-carbonyl]piperazin-1-yl]-N-[(1-methylazetidin-3-yl)methyl]-[2,3′-bipyridine]-6-carboxamide]
CCOc1ncccc1-c1ccc(N2CCN(C(=O)n3ccc4cc(F)cc(C#N)c43)C[C@H]2CC)c(C(=O)N[C@@H]2CCN(C)C2)n1 [Compound 1-438, 5-[(2R)-4-(7-cyano-5-fluoro-1H-indole-1-carbonyl)-2-ethylpiperazin-1-yl]-2′-ethoxy-N-[(3R)-1-methylpyrrolidin-3-yl]-[2,3′-bipyridine]-6-carboxamide]
CCOc1ncccc1-c1ccc(N2CCN(C(=O)c3ccc(Cl)cc3C(F)F)C[C@H]2CC)c(C(=O)NCCN(C)C)n1 [Compound 1-210, 5-[(2R)-4-[4-chloro-2-(difluoromethyl)benzoyl]-2-ethylpiperazin-1-yl]-N-[2-(dimethylamino)ethyl]-2′-ethoxy-[2,3′-bipyridine]-6-carboxamide]
CCOc1ncccc1-c1ccc(N2CCN(C(=O)N3CCc4cccc(C#N)c43)C[C@H]2CC)c(C(=O)N[C@@H]2CCNC2)n1 [Compound 1-365, 5-[(2R)-4-(7-cyano-2,3-dihydro-1H-indole-1-carbonyl)-2-ethylpiperazin-1-yl]-2′-ethoxy-N-[(3R)-pyrrolidin-3-yl]-[2,3′-bipyridine]-6-carboxamide]
